Patent publication US20120190691A1, “PHARMACEUTICAL COMPOSITIONS FOR TREATMENT OF RESPIRATORY AND INFLAMMATORY DISEASES” (priority 2010, published 2012)

System: ovalbumin-induced bronchospasm
Assay: Ovalbumin-induced bronchospasm (modified Konzett-Rössler) in sensitized anaesthetized guinea pigs
Type: in vivo
Description: Male and female Dunkin-Harley guinea pigs were obtained from the Experimental Animal Breeding Centre of Harlan Winkelmann (Germany). After fasting overnight, but with free access to drinking water, animals with body weight of 400-500 g were used.
Bronchospasm was recorded with a modified version of the method of Konzett-Röβler (described by Walland et al, in “Compensation of muscarinic bronchial effects of talsaclidine by concomitant sympathetic activation in guinea pigs”, European Journal of Pharmacology, Volume 330, Issue 2-3, 9 Jul. 1997, Pages 213-219). The animals were ventilated by means of a piston pump (starling ventilator, Hugo Sachs Elektronik, Germany) at a stroke volume of 1 ml/100 g body weight and at a rate of 60 strokes per min. The tubing which connected the tracheal cannula with the ventilator was provided with a branch leading to the bronchospasm transducer (bronchospasm transducer 7020, Ugo Basile, Italy). The air flow measurement is based on the hot wire anemometer principle. Any air flow will reduce the temperature of the wire, thereby decreasing its resistance in proportion of the flow. As the wire element is one arm of a Weaststone bridge, variation in resistance generate a proportional voltage output which feeds the amplifier/recording system (Notocord-hem, Notocord, France). Blood pressure and heart rate are monitored from a carotid artery in order to check the anesthesia and the variability of the preparation.
Guinea pigs were sensitized on 2 consecutive days with 20 μg ovalbumin (OVA) (Sigma, St. Louis, Mo.) and 20 mg Al(OH)3 in 0.5 ml saline, which were administered subcutaneously. Experiments, which included OVA challenge, were conducted 2 weeks after sensitization. Approximately 1 hour before OVA challenge, the animals were anaesthetized with an intraperitoneal injection of 50 mg/kg pentobarbital. Anesthesia was prolonged by intravenous infusion of pentobarbital (15 mg/kg/h) via the jugular vein. A tracheal cannula was introduced after tracheotomy for artificial ventilation. The internal jugular vein was cannulated for drug injection while the left carotid artery was cannulated for measuring blood pressure and heart rate. 30 minutes after the beginning of air flow and blood pressure measurements, bronchoconstriction is triggered by an OVA challenge given at a fixed dose of 50 μg/kg inhaled.
The test compounds or combinations of compounds were administered orally 2 hours before the OVA challenge.
The control group comprises 12 guinea-pigs, test compounds comprise 2 to 4 guinea-pigs.
Bronchoprotection of the drug (i.e. inhibition of OVA broncho-constriction) is expressed as a percentage of inhibition of the increase in overflow induced by OVA in the control animals.

[1] = Desloratidine 2.0 mg/kg p.o. alone (CRTH2 antagonist (1) 0.0)
[2] = Fexofenadine 0.5 mg/kg p.o. alone (CRTH2 antagonist (1) 0.0)
[3] = Pyrilamine 2.0 mg/kg p.o. alone (CRTH2 antagonist (1) 0.0)

Q: `CN(C)c1nc(Cc2ccc(NC(=O)c3ccc(C(F)(F)F)cc3)cc2)nc(N(C)C)c1CC(=O)O` [CRTH2 antagonist (1), [4,6-bis(dimethylamino)-2-(4-(4-(trifluoromethyl)benzamido)benzyl)pyrimidin-5-yl]-acetic acid] was tested. Which overflow (CRTH2 antagonist (1) 0.01 mg/kg p.o. alone, 2 hours before OVA challenge) did it give?
A: The overflow was 63 mL.

Q: And the overflow (CRTH2 antagonist (1) 0.03 mg/kg p.o. alone, 2 hours before OVA challenge)?
A: The overflow was 65 mL.

Q: And the overflow (CRTH2 antagonist (1) 0.10 mg/kg p.o. alone, 2 hours before OVA challenge)?
A: Its overflow is 69 mL.

Q: What about the overflow (CRTH2 antagonist (1) 0.30 mg/kg p.o. alone, 2 hours before OVA challenge) of the same molecule?
A: Its overflow is 60 mL.

Q: What about the overflow (CRTH2 antagonist (1) 1.00 mg/kg p.o. alone, 2 hours before OVA challenge) of the same molecule?
A: Its overflow is 65 mL.

Q: What about the overflow (CRTH2 antagonist (1) 3.00 mg/kg p.o. alone, 2 hours before OVA challenge) of the same molecule?
A: The overflow was 61 mL.

Q: What about the overflow (CRTH2 antagonist (1) 10.00 mg/kg p.o. alone, 2 hours before OVA challenge) of the same molecule?
A: The overflow was 65 mL.

Q: What about the “effect in this assay by itself” value (alone, conclusion) of the same molecule?
A: The value was “no effect”.

Q: What about the “effect by itself on the ovalbumin-induced bronchospasm” value (up to 10 mg/kg p.o., alone) of the same molecule?
A: Its value is “no effect”.

Q: For `Clc1ccc2c(c1)CCc1cccnc1C2=C1CCNCC1` [Desloratidine, reference compound], which bronchoprotection [1] is on record?
A: The bronchoprotection was 43%.

Q: What about the overflow [1] of the same molecule?
A: The overflow was 34 mL.

Q: With `CC(C)(C(=O)O)c1ccc(C(O)CCCN2CCC(C(O)(c3ccccc3)c3ccccc3)CC2)cc1` (stereo not drawn) [Fexofenadine, reference compound] as the molecule, how does the bronchoprotection [2] read?
A: Its bronchoprotection is 35%.

Q: What about the overflow [2] of the same molecule?
A: The overflow was 39 mL.

Q: Which bronchoprotection [3] does the source give for `COc1ccc(CN(CCN(C)C)c2ccccn2)cc1` [Pyrilamine, reference compound] here?
A: The bronchoprotection was 45%.

Q: What about the overflow [3] of the same molecule?
A: Its overflow is 33 mL.
